Results as given in patent publication US9682969B2, “Phthalazinone compounds and methods for the treatment of cystic fibrosis” (FLATLEY DISCOVERY LAB, LLC, priority 2013, dated 2017).

Target: human F508del CFTR (Homo sapiens (Human), UniProt P13569, DEL508-508)
Test: CFTR-YFP High Throughput Assay (YFP flux assay, FRT cells)
Format: cell-based
Conditions: FRT cells expressing human F508del CFTR and YFP
Description: This protocol is designed to selectively screen small molecule compounds for F508del CFTR corrector activities in the YFP (yellow fluorescent protein) flux assay. In this protocol, the cells are incubated with testing compounds for 24 hours, washed with PBS, stimulated with forskolin and a standard potentiator, and fluorescence in each plate well is measured kinetically read on a 384-well plate reader, such as the Hamamatsu FDSS-6000.
YFP fluorescence intensity values are acquired at high speed before and after iodide buffer is injected to the assay cells. Iodide enters the cells via active CFTR channels in the plasma membrane, and quenches the YFP fluorescence. The rate of fluorescence quenching is proportionate to the total CFTR activity in the cell membrane. F508del CFTR correctors increase the number of CFTR molecules in the testing cell plasma membrane, and thereby accelerate YFP quenching.
This method was initially developed for bench top plate readers (Galietta, J, Jayaraman, S and Verkman, A S. Cell-based assay for high-throughput quantitative screening of CFTR chloride transport agonists. Am. J. Physiol. Cell Physiol. (2001), 281: C173), and was adapted to the HTS format (Sui J, Cotard S, Andersen J, Zhu P, Staunton J, Lee M, Lin S. Optimization of a Yellow fluorescent protein-based iodide influx high-throughput screening assay for cystic fibrosis transmembrane conductance regulator (CFTR) modulators. Assay Drug Dev Technol. (2010), 8: 656-668).
Fisher Rat Thyroid (FRT) cells stably expressing both human F508del CFTR and a halide-sensitive yellow fluorescent protein (YFP-H148Q/I152L 25,22) (Galietta et al. Am. J. Physiol Cell Physiol 281(5), C1734, 2001) were cultured on plastic surface in Coon's modified Ham's F12 medium supplemented with FBS 10%, L-glutamine 2 mM, penicillin 100 U/ml, and streptomycin […]. G418 (0.75-1.0 mg/ml) and zeocin (3.2 ug/ml) were used for selection of FRT cells expressing F508del CFTR and YFP. For primary screening, FRT cells were plated into 384-well black wall, transparent bottom microtiter plates (Costar; Corning Inc.) at a cell density of 20,000-40,000 per well. Test compound was applied to the cells at varying concentrations ranging from 2 nM-40 μM in either a 2-fold or 3-fold dilution series. Cells were incubated in a cell culture incubator at 37° C. with 5% CO2 for 24-26 h. Assay plates were washed with DPBS media (Thermo, cat# SH30028.02) to remove unbound cells and compound. Stimulation media (25 μL) containing 20 μM Forskolin & 30 μM P3 [6-(Ethyl-phenyl-sulfonyl)-4-oxo-1,4-dihydro-quinoline-3-carboxylic acid 2-methoxy-benzylamide] in Hams F-12 coon's modified media was added to the plate wells and incubated at room temperature for 60-120 min. 25 μL of HEPES-PBS-I buffer (10 mM HEPES, 1 mM MgCl2, 3 mM KCl, 1 mM CaCl2, 150 mM NaI) was then added and fluorescence quench curves (Excitation 500 nm/Emission 540 nm; exposure 136 ms) were immediately recorded on an FDSS-6000 plate reader (Hamamatsu). Quench rates were derived from least squares fitting of the data as described by Sui et al (2010).
This protocol is designed to selectively screen small molecule compounds for F508del CFTR potentiator activities in the YFP (yellow fluorescent protein) flux assay. Such compounds act acutely to stimulate CFTR already expressed on the membrane surface. In this protocol, the cells are incubated at 27° C. for 24 hours to homogeneously boost F508del CFTR expression in the cell membrane (low temperature correction), washed with PBS, treated with test compound, and CFTR activity is stimulated with forskolin for 1-2 hr. Measurement of ion flux is initiated by addition of iodide-containing buffer, and YFP quenching is kinetically recorded using a 384-well plate reader, such as the Hamamatsu FDSS-6000.
YFP fluorescence intensity values are acquired at high speed over a 1 min time course before and after iodide buffer is injected to the assay cells. […]

Sequence of human F508del CFTR (P13569 other isoform, or with tags, fused parts or gaps del F508-F508): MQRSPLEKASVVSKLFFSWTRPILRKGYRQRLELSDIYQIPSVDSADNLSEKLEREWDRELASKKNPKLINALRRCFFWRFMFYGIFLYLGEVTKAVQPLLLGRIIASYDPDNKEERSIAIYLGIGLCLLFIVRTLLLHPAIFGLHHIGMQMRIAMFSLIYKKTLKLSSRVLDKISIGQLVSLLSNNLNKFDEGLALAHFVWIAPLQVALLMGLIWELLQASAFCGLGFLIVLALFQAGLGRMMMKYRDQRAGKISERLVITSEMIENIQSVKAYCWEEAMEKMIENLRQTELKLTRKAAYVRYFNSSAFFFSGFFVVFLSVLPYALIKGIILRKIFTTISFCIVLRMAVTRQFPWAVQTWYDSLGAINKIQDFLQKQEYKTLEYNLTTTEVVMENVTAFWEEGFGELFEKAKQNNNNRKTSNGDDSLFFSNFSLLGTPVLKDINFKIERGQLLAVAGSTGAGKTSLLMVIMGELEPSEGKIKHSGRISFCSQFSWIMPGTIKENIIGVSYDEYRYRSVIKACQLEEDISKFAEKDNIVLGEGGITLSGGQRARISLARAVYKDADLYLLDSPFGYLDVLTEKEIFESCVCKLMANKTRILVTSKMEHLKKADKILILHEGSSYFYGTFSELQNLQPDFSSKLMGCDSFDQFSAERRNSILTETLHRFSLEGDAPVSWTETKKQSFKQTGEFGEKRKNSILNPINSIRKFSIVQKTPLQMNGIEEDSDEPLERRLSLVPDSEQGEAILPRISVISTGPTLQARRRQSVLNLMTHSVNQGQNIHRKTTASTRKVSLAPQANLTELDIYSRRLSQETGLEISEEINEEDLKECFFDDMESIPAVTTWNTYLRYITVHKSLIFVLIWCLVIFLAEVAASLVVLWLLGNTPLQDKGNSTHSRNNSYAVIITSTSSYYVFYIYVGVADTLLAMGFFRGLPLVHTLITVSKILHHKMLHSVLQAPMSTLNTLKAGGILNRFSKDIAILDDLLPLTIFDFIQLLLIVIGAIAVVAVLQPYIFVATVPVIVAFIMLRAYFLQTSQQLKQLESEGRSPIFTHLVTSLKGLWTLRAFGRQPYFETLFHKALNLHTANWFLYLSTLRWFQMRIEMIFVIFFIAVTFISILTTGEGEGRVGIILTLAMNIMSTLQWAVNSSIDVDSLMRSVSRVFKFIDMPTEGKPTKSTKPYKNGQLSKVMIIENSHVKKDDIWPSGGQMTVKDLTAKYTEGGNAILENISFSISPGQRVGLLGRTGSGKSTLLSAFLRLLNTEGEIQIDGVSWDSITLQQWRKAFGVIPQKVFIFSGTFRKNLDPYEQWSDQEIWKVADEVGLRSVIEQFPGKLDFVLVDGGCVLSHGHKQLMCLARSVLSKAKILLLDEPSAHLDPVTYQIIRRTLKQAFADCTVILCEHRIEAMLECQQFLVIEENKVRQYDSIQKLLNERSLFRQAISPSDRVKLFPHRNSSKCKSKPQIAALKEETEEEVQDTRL

Row | SMILES | EC50 [µM]
1 | Cc1nc2ccc(N(C)C(=O)Cn3nc(-c4cccc(Cl)c4)c4ccc(OC5CCCCC5)cc4c3=O)cc2o1 [Example 26, 2-(4-(3-chlorophenyl)-7-(cyclohexyloxy)-1-oxophthalazin-2(1H)-yl)-N-methyl-N-(2-methylbenzo[d]oxazol-6-yl)acetamide] | < 10
2 | Cc1nc2ccc(N(C)C(=O)Cn3nc(-c4cccc(F)c4)c4ccc(OC5CCOCC5)cc4c3=O)cc2o1 [Example 27, 2-(4-(3-fluorophenyl)-1-oxo-7-((tetrahydro-2H-pyran-4-yl)oxy)phthalazin-2(1H)-yl)-N-methyl-N-(2-methylbenzo[d]oxazol-6-yl)acetamide] | < 10
3 | Cc1nc2ccc(N(C)C(=O)Cn3nc(-c4cccc(F)c4)c4ccc(OC5CCCCC5)cc4c3=O)cc2o1 [Example 28, 2-(7-(cyclohexyloxy)-4-(3-fluorophenyl)-1-oxophthalazin-2(1H)-yl)-N-methyl-N-(2-methylbenzo[d]oxazol-6-yl)acetamide] | < 10
4 | Cc1nc2ccc(N(C)C(=O)Cn3nc(-c4cccc(Cl)c4)c4ccc(OC5CCOCC5)cc4c3=O)cc2o1 [Example 29, 2-(4-(3-chlorophenyl)-1-oxo-7-((tetrahydro-2H-pyran-4-yl)oxy)phthalazin-2(1H)-yl)-N-methyl-N-(2-methylbenzo[d]oxazol-6-yl)acetamide] | < 10
5 | CCOc1cc2c(=O)n(CC(=O)N(C)c3ccc4nc(C)oc4c3)nc(-c3cccc(F)c3)c2cc1Cl [Example 30, 2-(6-chloro-7-ethoxy-4-(3-fluorophenyl)-1-oxophthalazin-2(1H)-yl)-N-methyl-N-(2-methylbenzo[d]oxazol-6-yl)acetamide] | < 10
6 | CCOc1cc2c(=O)n(CC(=O)N(C)c3ccc4nc(C)oc4c3)nc(-c3cccc(Cl)c3)c2cc1Cl [Example 31, 2-(6-chloro-4-(3-chlorophenyl)-7-ethoxy-1-oxophthalazin-2(1H)-yl)-N-methyl-N-(2-methylbenzo[d]oxazol-6-yl)acetamide] | < 10
